Patent publication US7601716B2, “Pyridopyrazines and derivatives thereof as ALK and c-Met inhibitors” (Cephalon, Inc., priority 2006, dated 2009)
Where a name gives a salt, the structure may show the parent alone.

Legend:
[1] = target: T1, c-Met (cytoplasmic domain) (Homo sapiens, UniProt P08581); assay: c-Met Kinase Assay (ELISA/TRF, PLC-γ substrate); format: biochemical; settings: 3 μM ATP (Km level); read-out: c-Met Kinase Inhibition (IC50)
T1 construct: Reactions were initiated with 30 ng/mL c-Met (cytoplasmic domain, Invitrogen Corporation #PV3143); purchased Invitrogen Corporation PV3143
Procedure: Example compounds were tested for their ability to inhibit the kinase activity of baculovirus-expressed ALK using a modification of the ELISA protocol reported for trkA in Angeles, T. S. et al., Anal. Biochem. 1996, 236, 49-55, which is incorporated herein by reference in its entirety. Phosphorylation of the substrate, phospholipase C-gamma (PLC-γ) generated as a fusion protein with glutathione S-transferase (GST) as reported in Rotin, D. et al., EMBO J. 1992, 11, 559-567, which is incorporated herein by reference in its entirety, was detected with a europium-labeled anti-phosphotyrosine antibody and measured by time-resolved fluorescence (TRF). Briefly, each 96-well plate was coated with 100 μL/well of 10 μg/mL substrate (phospholipase C-γ) in Tris-buffered saline (TBS). […] The reaction was initiated by adding enzyme (30 ng/ml ALK) and was allowed to proceed at 37° C. for 15 minutes. Detection of the phosphorylated product was performed by adding 100 μl/well of Eu-N1 labeled PT66 antibody (Perkin Elmer # AD0041). Incubation at 37° C. then proceeded for one (1) hour, followed by addition of 100 μL enhancement solution (Wallac #1244-105). The plate was gently agitated and after thirty minutes, the fluorescence of the resulting solution was measured using the EnVision 2100 (or 2102) multilabel plate reader (Perkin Elmer).
Data analysis was performed using ActivityBase (IDBS, Guilford, UK). IC50 values were calculated by plotting percent inhibition versus log10 of the concentration of compound and fitting to the nonlinear regression sigmoidal dose-response (variable slope) equation in XLFit (IDBS, Guilford, UK).
Reactions were initiated with 30 ng/mL c-Met (cytoplasmic domain, Invitrogen Corporation #PV3143).

[2] = target: baculovirus-expressed ALK (Homo sapiens, UniProt Q9UM73); assay: ALK Kinase Assay (ELISA/TRF, PLC-γ substrate); format: biochemical; settings: read-out: ALK Kinase Inhibition (IC50); note: 1 µM ATP (Km level)
Procedure, shortened: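 GST-PLC-γ coat 10 μg/mL/TBS; 30 ng/ml ALK, 37° C, 15 min; Eu-PT66 anti-pTyr 1 h 37° C, enhancement, TRF. IC50: % inhib vs log10[cpd], variable-slope sigmoid.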

Sequence of baculovirus-expressed ALK (Q9UM73 19-1620): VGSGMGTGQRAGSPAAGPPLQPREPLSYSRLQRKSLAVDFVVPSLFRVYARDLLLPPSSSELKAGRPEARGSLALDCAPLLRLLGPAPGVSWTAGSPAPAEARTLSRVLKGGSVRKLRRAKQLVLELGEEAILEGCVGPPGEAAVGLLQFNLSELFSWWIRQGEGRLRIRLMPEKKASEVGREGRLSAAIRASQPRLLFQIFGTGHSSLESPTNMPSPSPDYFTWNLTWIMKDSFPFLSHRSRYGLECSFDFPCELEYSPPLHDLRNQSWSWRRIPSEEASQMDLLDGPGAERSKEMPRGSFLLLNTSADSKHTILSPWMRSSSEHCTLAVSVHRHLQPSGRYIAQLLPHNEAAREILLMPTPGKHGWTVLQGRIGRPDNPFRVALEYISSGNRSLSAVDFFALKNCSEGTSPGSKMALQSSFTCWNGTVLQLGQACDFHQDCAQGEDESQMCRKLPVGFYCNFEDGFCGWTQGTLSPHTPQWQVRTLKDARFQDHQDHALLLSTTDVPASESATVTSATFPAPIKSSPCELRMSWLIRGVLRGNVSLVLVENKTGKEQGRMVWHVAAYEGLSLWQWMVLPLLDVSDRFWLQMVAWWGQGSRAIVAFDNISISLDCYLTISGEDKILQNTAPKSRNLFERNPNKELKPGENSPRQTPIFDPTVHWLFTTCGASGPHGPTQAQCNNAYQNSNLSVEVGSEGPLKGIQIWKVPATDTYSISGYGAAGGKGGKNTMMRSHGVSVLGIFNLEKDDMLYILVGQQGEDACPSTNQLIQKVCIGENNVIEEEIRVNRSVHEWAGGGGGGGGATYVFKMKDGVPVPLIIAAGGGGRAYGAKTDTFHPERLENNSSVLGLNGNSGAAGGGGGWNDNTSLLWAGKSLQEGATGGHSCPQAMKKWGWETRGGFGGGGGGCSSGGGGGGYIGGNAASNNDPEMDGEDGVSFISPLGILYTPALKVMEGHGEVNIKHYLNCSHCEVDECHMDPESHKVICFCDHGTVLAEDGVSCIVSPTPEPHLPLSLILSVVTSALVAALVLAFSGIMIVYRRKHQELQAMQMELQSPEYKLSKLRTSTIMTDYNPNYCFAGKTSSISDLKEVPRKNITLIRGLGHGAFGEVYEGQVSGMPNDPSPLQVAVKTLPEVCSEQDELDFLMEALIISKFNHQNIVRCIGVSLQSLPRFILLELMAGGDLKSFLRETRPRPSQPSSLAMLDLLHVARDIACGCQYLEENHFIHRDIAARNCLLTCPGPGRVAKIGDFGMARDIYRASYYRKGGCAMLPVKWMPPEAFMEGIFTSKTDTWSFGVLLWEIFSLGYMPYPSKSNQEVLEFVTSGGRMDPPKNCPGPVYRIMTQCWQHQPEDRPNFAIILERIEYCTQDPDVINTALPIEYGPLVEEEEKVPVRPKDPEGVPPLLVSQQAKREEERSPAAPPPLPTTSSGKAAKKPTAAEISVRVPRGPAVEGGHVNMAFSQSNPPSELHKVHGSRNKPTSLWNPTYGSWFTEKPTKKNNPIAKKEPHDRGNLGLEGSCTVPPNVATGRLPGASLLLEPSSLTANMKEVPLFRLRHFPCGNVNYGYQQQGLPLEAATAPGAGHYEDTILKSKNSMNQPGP
T1 sequence (P08581 956-1390 limits assumed): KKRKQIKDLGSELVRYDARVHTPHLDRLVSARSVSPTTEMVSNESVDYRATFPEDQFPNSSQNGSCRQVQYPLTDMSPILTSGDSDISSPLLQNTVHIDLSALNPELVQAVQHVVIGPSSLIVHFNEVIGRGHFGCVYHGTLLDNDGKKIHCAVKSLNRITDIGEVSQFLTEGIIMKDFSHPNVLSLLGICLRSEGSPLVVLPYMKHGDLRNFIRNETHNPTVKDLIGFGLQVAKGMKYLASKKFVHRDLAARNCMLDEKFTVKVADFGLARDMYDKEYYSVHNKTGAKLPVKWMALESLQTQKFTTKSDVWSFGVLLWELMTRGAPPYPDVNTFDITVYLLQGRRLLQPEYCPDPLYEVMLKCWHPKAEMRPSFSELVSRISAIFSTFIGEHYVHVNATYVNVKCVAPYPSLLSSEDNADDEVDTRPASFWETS

`CN1CCN(C(=O)c2ccc(-c3cnc4c(c3)C(Oc3cccc(Cl)c3)CCN4)cc2)CC1` (stereo not shown) [Example 274, {4-[5-(3-Chlorophenoxy)-5,6,7,8-tetrahydro-[1,8]naphthyridin-3-yl]-phenyl}-(4-methylpiperazin-1-yl)methanone] gave an IC50 [1] of 1000 to 10000 nM and an IC50 [2] of 1000 to 10000 nM.
`O=C(c1cnc2c(c1)N(Cc1cc(Cl)ccc1Cl)CCN2)N1CCN(c2ncnc3ccsc23)CC1` [Example 217, [1-(2,5-Dichlorobenzyl)-1,2,3,4-tetrahydropyrido[2,3-b]pyrazin-7-yl]-(4-thieno[3,2-d]pyrimidin-4-yl-piperazin-1-yl)methanone] was tested, and the IC50 [1] was over 100000 nM and the IC50 [2] was 1000 to 10000 nM.
Molecule `O=C(c1ccc(-c2cnc3ncc(=O)n(Cc4ccccc4)c3c2)cc1)N1CCC(N2CCCC2)CC1` [Example 17, 1-Benzyl-7-[4-(4-(pyrrolidin-1-yl)piperidine-1-carbonyl)phenyl]-1H-pyrido[2,3-b]pyrazin-2-one, trifluoroacetic acid salt] has an IC50 [1] of 10000 to 100000 nM and an IC50 [2] of 10000 to 100000 nM.
`COC(=O)C(C)(C)Nc1ncc(I)cc1[N+](=O)[O-]` [Example 90, 2-(5-Iodo-3-nitro-pyridin-2-ylamino)-2-methyl-propionic acid methyl ester] was tested, and the IC50 [1] was over 100000 nM and the IC50 [2] was over 100000 nM.
With `COc1ncc(-c2cnc3c(c2)N(Cc2cc(Cl)ccc2Cl)CCN3)cn1` [Example 129, 1-(2,5-Dichlorobenzyl)-7-(2-methoxypyrimidin-5-yl)-1,2,3,4-tetrahydropyrido[2,3-b]pyrazine] the IC50 [1] was 10000 to 100000 nM and the IC50 [2] was 100 to 1000 nM.
`O=C(c1cnc2c(c1)N(Cc1cc(Cl)ccc1Cl)CCN2)N1CCC(O)(c2ccc(Cl)cc2)CC1` [Example 208, [4-(4-Chlorophenyl)-4-hydroxypiperidin-1-yl]-[1-(2,5-dichlorobenzyl)-1,2,3,4-tetrahydropyrido[2,3-b]pyrazin-7-yl]methanone] showed an IC50 [1] of over 100000 nM and an IC50 [2] of 1000 to 10000 nM.
`CN1CCN(CCNC(=O)c2cnc3c(c2)N(Cc2cc(F)ccc2F)CCN3)CC1` [Example 80, 1-(2,5-Difluorobenzyl)-1,2,3,4-tetrahydropyrido[2,3-b]pyrazine-7-carboxylic acid[2(4-methylpiperazin-1-yl)ethyl]amide] showed an IC50 [1] of over 100000 nM and an IC50 [2] of 10000 to 100000 nM.
`O=C(NCCOc1ccccc1)c1cnc2c(c1)N(Cc1cc(Cl)ccc1Cl)CCN2` [Example 251, 1-(2,5-Dichlorobenzyl)-1,2,3,4-tetrahydropyrido[2,3-b]pyrazine-7-carboxylic acid (2-phenoxyethyl)amide] was tested, and the IC50 [1] was 10000 to 100000 nM and the IC50 [2] was 10000 to 100000 nM.
For `Fc1ccc(F)c(CN2CCNc3ncc(-c4ccnc(N5CCOCC5)c4Cl)cc32)c1Cl` [Example 101, 1-(2-Chloro-3,6-difluorobenzyl)-7-(3-chloro-2-morpholin-4-yl-pyridin-4-yl)-1,2,3,4-tetrahydropyrido[2,3-b]pyrazine], the IC50 [1] was 1000 to 10000 nM and the IC50 [2] was 100 to 1000 nM.
`O=C(c1ccc(-c2cnc3c(c2)N(Cc2cc(F)ccc2F)CCN3)cc1)N1CCOCC1` [Example 68, {4-[1-(2,5-Difluorobenzyl)-1,2,3,4-tetrahydropyrido[2,3-b]pyrazin-7-yl]phenyl}-morpholin-4-yl-methanone] showed an IC50 [1] of 1000 to 10000 nM and an IC50 [2] of 100 to 1000 nM.
Molecule `CC(C)NC(=O)CN1CCN(C(=O)c2cccc(-c3cnc4c(c3)N(Cc3cc(Cl)ccc3C(F)(F)F)CCN4)c2)CC1` [Example 336, 2-[4-(3-{1-[5-Chloro-2-(trifluoromethyl)benzyl]-1,2,3,4-tetrahydropyrido[2,3-b]pyrazin-7-yl}benzoyl)piperazin-1-yl]-N-isopropylacetamide] has an IC50 [2] of 100 to 1000 nM.
`O=C(c1ccc(-c2cnc3c(c2)N(Cc2cc(Cl)ccc2C(F)(F)F)CCN3)cc1)N1CCC(O)(c2ccc(Cl)cc2)CC1` [Example 371, [4-(4-Chlorophenyl)-4-hydroxypiperidin-1-yl]-(4-{1-[5-chloro-2-(trifluoromethyl)benzyl]-1,2,3,4-tetrahydropyrido[2,3-b]pyrazin-7-yl}phenyl)methanone] gave an IC50 [2] of 100 to 1000 nM.
Molecule `O=C(c1cccc(-c2cnc3c(c2)N(Cc2cc(Cl)ccc2C(F)(F)F)CCN3)c1)N1CCC(c2ccccc2)CC1` [Example 313, (3-{1-[5-Chloro-2-(trifluoromethyl)benzyl]-1,2,3,4-tetrahydropyrido[2,3-b]pyrazin-7-yl}phenyl)-(4-phenylpiperidin-1-yl)methanone] has an IC50 [2] of 100 to 1000 nM.
Work on `O=C(NC1CCN(Cc2ccccc2)C1)c1ccc(-c2cnc3c(c2)N(Cc2cc(Cl)ccc2C(F)(F)F)CCN3)cc1` (stereo not shown) [Example 427, N-(1-Benzylpyrrolidin-3-yl)-4-{1-[5-chloro-2-(trifluoromethyl)benzyl]-1,2,3,4-tetrahydropyrido[2,3-b]pyrazin-7-yl}benzamide] yielded an IC50 [2] of 100 to 1000 nM.
With `O=C(c1ccc(-c2cnc3c(c2)N(Cc2cc(Cl)ccc2C(F)(F)F)CCN3)cc1)N1CCOCC1` [Example 408, (4-{1-[5-Chloro-2-(trifluoromethyl)benzyl]-1,2,3,4-tetrahydropyrido[2,3-b]pyrazin-7-yl}phenyl)morpholin-4-ylmethanone] the IC50 [2] was 100 to 1000 nM.
With `COc1ccccc1CN(C)C(=O)c1ccc(-c2cnc3c(c2)N(Cc2cc(Cl)ccc2C(F)(F)F)CCN3)cc1` [Example 432, 4-{1-[5-Chloro-2-(trifluoromethyl)benzyl]-1,2,3,4-tetrahydropyrido[2,3-b]pyrazin-7-yl}-N-(2-methoxybenzyl)-N-methylbenzamide] the IC50 [2] was 100 to 1000 nM.
Molecule `O=C(c1ccc(-c2cnc3c(c2)N(Cc2cc(Cl)ccc2C(F)(F)F)CCN3)cc1)N1CCN(CC2CCCCC2)CC1` [Example 428, (4-{1-[5-Chloro-2-(trifluoromethyl)benzyl]-1,2,3,4-tetrahydropyrido[2,3-b]pyrazin-7-yl}phenyl)-[4-(cyclohexylmethyl)piperazin-1-yl]methanone] has an IC50 [2] of 1000 to 10000 nM.
In the case of `O=C(c1cccc(-c2cnc3c(c2)N(Cc2cc(Cl)ccc2C(F)(F)F)CCN3)c1)N1CCC(O)(c2ccc(Cl)cc2)CC1` [Example 309, [4-(4-Chlorophenyl)-4-hydroxypiperidin-1-yl]-(3-{1-[5-Chloro-2-(trifluoromethyl)benzyl]-1,2,3,4-tetrahydropyrido[2,3-b]pyrazin-7-yl}phenyl)methanone], the IC50 [2] is reported as 100 to 1000 nM.
In the case of `O=C(c1cccc(-c2cnc3c(c2)N(Cc2cc(Cl)ccc2C(F)(F)F)CCN3)c1)N1CCN(c2ccc(Cl)c(Cl)c2)CC1` [Example 317, (3-{1-[5-Chloro-2-(trifluoromethyl)benzyl]-1,2,3,4-tetrahydropyrido[2,3-b]pyrazin-7-yl}phenyl)-[4-(3,4-dichlorophenyl)piperazin-1-yl]methanone], the IC50 [2] is reported as 100 to 1000 nM.
`COc1ccc(CN2CCN(C(=O)c3cccc(-c4cnc5c(c4)N(Cc4cc(Cl)ccc4C(F)(F)F)CCN5)c3)CC2)cc1` [Example 322, (3-{1-[5-Chloro-2-(trifluoromethyl)benzyl]-1,2,3,4-tetrahydropyrido[2,3-b]pyrazin-7-yl}phenyl)-[4-(4-methoxybenzyl)piperazin-1-yl]methanone] was tested, and the IC50 [2] was 100 to 1000 nM.
`CS(=O)(=O)c1ccc(CNC(=O)c2cccc(-c3cnc4c(c3)N(Cc3cc(Cl)ccc3C(F)(F)F)CCN4)c2)cc1` [Example 347, 3-{1-[5-Chloro-2-(trifluoromethyl)benzyl]-1,2,3,4-tetrahydropyrido[2,3-b]pyrazin-7-yl}-N-(4-methanesulfonylbenzyl)benzamide] showed an IC50 [2] of 100 to 1000 nM.
